This is an account of results in paper PMC9995496, “A screen for MeCP2-TBL1 interaction inhibitors using a luminescence-based assay” (Scientific Reports, 2023).

Ends that are not written are not given here. * marks the point of attachment. Biotin = O=C1N[C@H]2[C@H](CS[C@H]2CCCCC(=O)*)N1

For one assay, the system named is PRKACA-PRKAR2A interaction (SmBiT-PRKACA / LgBiT-PRKAR2A), protein kinase A.
Experiment: not given
Also on record: NanoLuc complementation counter-screen in cell extract, PRKACA with PRKAR2A, loss of luminescence, detects NanoLuc interference. The settings on record: counter-screen for NanoLuc interference; 0.5 h, 20 µM; inhibitor. Background: Counterscreens check selectivity or assay interference.
Turning to `Nc1ncnc2c1ncn2[C@@H]1O[C@H](CO)C[C@H]1O` [UM0142866:01, Cordycepin], the “Inh (PKA)” value is -8.119%.

As for `Nc1ccccc1NC(=O)CCCCCCC(=O)Nc1ccccc1` [UM0142867:01, BML-210(CAY10433)], the “Inh (PKA)” value is recorded as 8.004%. For `Fc1ccc(C(c2ccc(F)cc2)N2CCN(C/C=C/c3ccccc3)CC2)cc1` [flunarizine], the “Inh (PKA)” value was 10.34%.

Take `C=C1C(=O)[C@]23[C@H](O)[C@H]1CC[C@H]2[C@@]12CO[C@]3(O)[C@@H](O)[C@@H]1C(C)(C)CC[C@@H]2O` [oridonin]: the “Inh (PKA)” value is on record as 14.12%. Still for that read-out and setting: the result for “QVPSRPNRAP [UM0141376:01, Dynamin inhibitory peptide]” reads 1.092%. For the compound “VPMLK [UM0141837:01, Bax inhibitor peptide V5]”, the “Inh (PKA)” value is -2.196%.

For another assay, the target named is T1, MeCP2-TBL1 interaction (MeCP2-SmBiT / TBL1-LgBiT) (Mus musculus, UniProt Q9QXE7).
T1 construct: expressed in transfected cells; crude lysate used as a cell-free assay
T1 sequence (Q9QXE7 166-527): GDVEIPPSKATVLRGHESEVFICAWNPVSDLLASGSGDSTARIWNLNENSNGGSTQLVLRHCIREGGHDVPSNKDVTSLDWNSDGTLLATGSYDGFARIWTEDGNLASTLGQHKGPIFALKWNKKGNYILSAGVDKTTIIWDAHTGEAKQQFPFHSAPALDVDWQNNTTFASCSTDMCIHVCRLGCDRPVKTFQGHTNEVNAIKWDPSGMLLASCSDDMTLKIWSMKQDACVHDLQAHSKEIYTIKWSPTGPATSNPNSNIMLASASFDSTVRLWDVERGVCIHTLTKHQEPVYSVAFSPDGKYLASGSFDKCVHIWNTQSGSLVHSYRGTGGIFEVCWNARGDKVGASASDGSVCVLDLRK
The assay can be described thus: MeCP2-TBL1 NanoLuc luciferase complementation assay (cell-free, extracts of transfected HEK293 cells). The format is binding, human. The settings on record: peptide at 20 µM, n = 2. The source says: To facilitate the discovery of inhibitors of the interaction between MeCP2 and TBL1/TBLR1, we set out to devise a simple and scalable biochemical assay for measuring the interaction between these two proteins. We initially explored the possibility of screening compound libraries using a previously established fluorescence polarization assay that depends on purified recombinant TBL1/TBLR1[26]. […] The resulting luminescence signal depends on the affinity between the two interacting proteins of interest (Fig. 1A). This method was originally developed to allow for the interrogation of protein–protein interactions in vivo. However, in order to facilitate large scale screening of chemical libraries, we adapted the assay for use as a cell-free system.
We fused the large N-terminal fragment of NanoLuc (LgBiT) to the C-terminus of the WD repeat domains of both TBL1 and TBLR1, and the small C-terminal fragment of NanoLuc (SmBiT) to the C-terminus of the C-terminal half of MeCP2 (Fig. 1B and C). This region of MeCP2 contains the NID (NCoR interaction domain)—the motif in MeCP2 that binds to TBL1/TBLR1.
The AgeI-NotI restriction fragment (encoding EGFP) was then replaced with a codon optimized SmBiT sequence to yield the MeCP2-SmBiT expression plasmid. The TBL1-LgBiT expression vector was derived from a TBL1-mCherry plasmid[25] by replacing the AgeI-NotI restriction fragment (encoding mCherry) with a codon optimized LgBiT sequence. SmBiT-PRKACA and LgBiT-PRKAR2A plasmids are commercially available (Promega, N203 and N204).
Cells were harvested after 24 h and cell pellets were stored at − 80 °C.
In the screens described here, the lysate obtained from a single 15 cm plate was used for 2.5 384-well assay plates. NanoLuc substrate (furimazine) (Promega, N1110) was diluted 1000-fold in passive lysis buffer (Promega, E1941) and added 1:1 to the lysate. Screening libraries were purchased from Asinex[40] and ApexBio (FDA-approved Drug Library, L1021). Compounds were dispensed using an Echo acoustic dispenser and tested at a final concentration of 20 µM in a total assay volume of 20 μl in 384-well plate format. DMSO was added to each well at a final concentration of 0.2% (v/v) and wells containing only DMSO were used as negative control. After 30 min incubation at room temperature, luminescence was measured on a Tecan M1000 multi-mode plate reader. Raw luminescence reads from each well on each plate were normalized to the median luminescence signal for that plate. In the ApexBio screen, the scaled and normalized PKA signal for each compound was subtracted from the MeCP2-TBL1 signal for the same compound. After plate normalization the robust SSMD (SSMD*) was calculated as described elsewhere. A threshold of SSMD* ≥ 3 was applied for discerning primary hits.
Assays were performed as described above except instead of a single concentration, a threefold serial dilution ranging from 60 to 0.03 μM was tested in triplicate for each of the compounds. Half-maximal inhibitory concentrations were calculated using global nonlinear regression by fitting the response data sets of all compounds simultaneously with a four-parameter logistic curve of log inhibitor concentration versus normalized luminescence using GraphPad Prism. During fitting, the maximum and minimum curve values were shared between the data sets.
In the case of “35 amino acid peptide: 35 amino acid MeCP2 wild-type NID peptide (residues 285-319), N-terminal biotin (Biotin-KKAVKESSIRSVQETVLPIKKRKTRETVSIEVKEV; UniProt P51608 285-319, looked up, fragment) [reference compound]”, the “effect of competitor peptide on MeCP2-TBL1 luminescence signal” value is reported as “strongly inhibited”.

Still in this assay, the particulars now being: primary screen of Asinex library, single well per compound.
For `Cc1ncc(C(=O)N2CCOCC2)c(C2CCCCN2C(=O)c2nccc3ccccc23)n1` (stereo not shown) [BDC_23573125], the Inhibition percent is given as -0.64. On the same count and under the same terms, the value for `COc1cccc(Cc2cccc(C3CCCN(Cc4ccncc4)C3)n2)c1` (stereo not shown) [BDC_27849507] was -4.87; that for `COCCN1C(=O)C[C@@H](C(=O)NCc2ccccc2COC)[C@@H]1c1ccccc1` [BDC_32231307] was -0.68; that for `CCN1CCN(C(=O)CCC2NC(=O)NC2=O)C(Cc2ccc(-c3ccccc3)cc2)C1=O` (stereo not shown) [BDD_21846702] was -2.65.

For `CN1CCC(c2c(C(=O)NCCS(=O)(=O)NC3CCCCC3)sc3ccccc23)C1` (stereo not shown) [BDD_24044260], the Inhibition percent was -0.05.

The same assay, now with this note: primary screen of the Asinex library, sheet "Sargen output Asinex library", one well per compound.
Take `O=C(Cn1cccc(C(=O)NCc2ccccc2)c1=O)NC1(c2ccccc2)CCCC1` [BDB_26402348]: the Inhibition percent was found to be 2.11%. On to `CN(Cc1ccc2ncccc2c1)C(=O)Cn1cc(C(=O)NCc2ccccc2)ccc1=O` [BDB_26410269], for which the Inhibition percent was -0.72%. As to `Cc1ccc(CC(=O)N2CCCC(c3ncc(C(=O)NCc4ccccc4)c(C)n3)C2)cc1` (stereo not shown) [BDC_23198767], the Inhibition percent is listed as -0.69%. Same read-out and setting: the value for `COc1ccc(CNC(=O)c2cnc(C)nc2C2CCCCN2C(=O)c2cnccn2)cc1` (stereo not shown) [BDC_23571437] was 0.37%; that for `CNC(=O)c1cnc(C)nc1C1CCCCN1CCS(=O)(=O)c1ccccc1` (stereo not shown) [BDC_23573041] was -1.44%; that for `COc1ccc(C2CCCN2C(=O)Cn2cc(NC(=O)Cc3ccccc3F)cn2)cc1` (stereo not shown) [BDC_25693383] was -0.19%.

Consider `COc1ccc(Cc2cccc(C3CCN(C(=O)Cc4ccc(F)cc4)CC3)n2)cc1` [BDC_27855593], for which the Inhibition percent is 0.65%. `CNc1ncccc1CN1CCCC(c2cccc(Cc3cccc(F)c3)n2)C1` (stereo not shown) [BDC_27866586]: the Inhibition percent came to 7.34%.

As for `C=CCN1CCN(C(=O)Cc2cccnc2)C(Cc2ccc(-c3cccs3)cc2)C1=O` (stereo not shown) [BDD_21855492], the Inhibition percent turned out to be 0.61%. Regarding `CN(Cc1cccc(F)c1)Cc1nc(C2CC(=O)N(Cc3ccccc3)C2)cc(N(C)C)n1` (stereo not shown) [BDD_23510085], the Inhibition percent is -0.99%. On the same count and under the same terms, the value for `Cc1cnc(C(=O)N2CCC(Cc3nc(C)ncc3C(=O)NCc3ccccc3)CC2)cn1` [BDD_23852576] was 0.67%. On the same count and under the same terms, the result for `COc1ccc(F)cc1-c1cccc(CC2(C(=O)NCCN3CCCCC3C)CCOCC2)c1` (stereo not shown) [BDD_24116196] reads 5.71%; that for `Cc1cc(C)cc(-c2cccc(CC3(C(=O)NCCCN4CCC(C)CC4)CCOCC3)c2)c1` [BDD_24116218], -2.01%. `CCCC(=O)N1Cc2ccccc2OC2(CCC(N(C)CC3CCCCC3)CC2)C1` (stereo not shown) [BDD_24804536]: the Inhibition percent is -1.18%.

Staying with this assay, now noted: primary screen of the Asinex library, sheet "Sargen output Asinex library", one well per compound, Batch Ref. 1.
Turning to `O=C(Cn1cc(C(=O)NC2CCCCC2)ccc1=O)NCC1(c2ccccc2Cl)CC1` [BDB_26414870], the Inhibition percent is 4.99%.

For the compound `C=CCC1(CC=C)CCN1C(=O)C1(Cc2ccc(-c3cccnc3)cc2)CCOCC1` [BDC_20667788], the Inhibition percent is -1.31%.

Turning to `Cc1cccc(CC(=O)N2CCC(Cc3cccc(-c4cccnc4)c3)(C(N)=O)CC2)c1` [BDC_22461702], the Inhibition percent is recorded as -2.13%. Regarding `CCOc1ccc(CN2CCCC2c2ncc(C(=O)NCc3ccc(F)cc3)c(C)n2)cc1` (stereo not shown) [BDC_23170699], the Inhibition percent was -3.60%.

With `Cc1cccc(CC(=O)N2CCCCC2c2ncc(C(=O)NCc3ccccc3)c(C)n2)c1` (stereo not shown) [BDC_23190776], the Inhibition percent was -1.94%.

Turning to `COc1ccccc1NC(=O)C1CN(C(=O)COc2ccccc2)Cc2cn(C)nc21` (stereo not shown) [BDC_23414979], the Inhibition percent is -4.37%. For the compound `CCN1C(=O)CC[C@@H](C(=O)NCCOc2ccccc2)[C@@H]1c1ccccc1F` [BDC_32230426], the Inhibition percent was 0.19%. On the same count and under the same terms, the value for `O=C1CCCC[C@]2(CN(Cc3ccc(-c4ccccc4)cc3)C[C@H]2c2cc(F)cc(F)c2)N1` [BDD_20406167] was 4.82%; that for `COc1cccc(C(=O)N2CCNC(=O)C2Cc2cccc(-c3cccc(F)c3)c2)c1OC` (stereo not shown) [BDD_21847933] was 1.68%. On the same count and under the same terms, the value for `CCN1CCN(C(=O)Cc2ccccc2OC)C(Cc2cccc(-c3ccncc3)c2)C1=O` (stereo not shown) [BDD_21872283] was -1.27%.

As to `O=C1CC(C(=O)N2CCNC(=O)C2Cc2cccc(-c3ccccc3)c2)c2ccccc2N1` (stereo not shown) [BDD_21879577], the Inhibition percent is given as 4.73%. Turning to `CCN1CCN(C(=O)Cc2ccccc2OC)C(Cc2ccc(-c3cccnc3)cc2)C1=O` (stereo not shown) [BDD_21886831], the Inhibition percent was -2.52%. Same read-out and setting: the result for `O=C1CCC[C@]2(CN(Cc3cccc(-c4ccccc4F)c3)C[C@H]2c2ccccc2F)N1` [BDD_23570797] reads 11.53%.

Take `O=C1CCC[C@]2(CN(Cc3cccc(-c4ccccc4F)c3)C[C@H]2c2ccc(F)c(F)c2)N1` [BDD_23570819]: the Inhibition percent was found to be 11.60%.

Consider `COc1ccccc1-c1ccc(CN2C[C@@H](c3cccc(NC(C)=O)c3)[C@@]3(CCCCC(=O)N3)C2)cc1` [BDD_23570835], for which the Inhibition percent is on record as 5.89%. On the same count and under the same terms, the value for `COc1ccccc1-c1cccc(CN2C[C@@H](c3cc(F)cc(F)c3)[C@@]3(CCCCC(=O)N3)C2)c1` [BDD_23570836] was 1.23%. Same read-out and setting: the result for `Cc1ncc(C(=O)NCc2ccccc2)c(CC2CCN(C(=O)C3CCCCC3)CC2)n1` [BDD_23848427] reads -4.61%; that for `COCCNC(=O)c1sc2ccccc2c1C1CN(C(=O)C(C)(C)OC)CCO1` (stereo not shown) [BDD_24015180], -2.46%; that for `NC(=O)c1cc(C2CN(C(=O)c3ccnc(N4CCCCC4)c3)CCO2)nc2ccccc12` (stereo not shown) [BDD_24083754], -2.41%. With `O=C(Cn1cccn1)N1CCOC(c2cc(C(=O)N3CCOCC3)c3ccccc3n2)C1` (stereo not shown) [BDD_24083810], the Inhibition percent is on record as -2.04%.
